According to PubChem BioAssay (NCI):
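Compound exposure: 48 hours, 5 concentrations, 96-well plates. Definition used: TGI = concentration required for complete inhibition of growth.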 Where a SMILES comes first, the peptide text is derived from it. [ ]: non-standard residue; d: D form. The star is where a group is joined. ξ: configuration not given here. ξHyp = O=C(O)C1CC(O)CN1; Cbz = O=C(OCc1ccccc1)*

Experiments:
Assay in all cases: growth of human tumour cells (NCI), 48 h
[1] = tested on: NCI-H460 lung
[2] = tested on: TK-10 renal
[3] = tested on: OVCAR-3 ovarian
[4] = tested on: HCT-15 colon
[5] = tested on: KM12 colon
[6] = tested on: U251 CNS
[7] = tested on: SK-MEL-5 melanoma
[8] = tested on: MCF7 breast
[9] = tested on: SNB-75 CNS
[10] = tested on: HCC-2998 colon
[11] = tested on: M14 melanoma
[12] = tested on: MOLT-4 leukemia
[13] = tested on: RXF 393 renal
[14] = tested on: HL-60(TB) leukemia
[15] = tested on: SF-295 CNS
[16] = tested on: T-47D breast
[17] = tested on: NCI/ADR-RES ovarian
[18] = tested on: IGROV1 ovarian
[19] = tested on: UACC-62 melanoma
[20] = tested on: SN12C renal
[21] = tested on: UO-31 renal
[22] = tested on: OVCAR-5 ovarian
[23] = tested on: SNB-19 CNS
[24] = tested on: CCRF-CEM leukemia
[25] = tested on: MALME-3M melanoma
[26] = tested on: NCI-H23 lung
[27] = tested on: SK-MEL-28 melanoma
[28] = tested on: OVCAR-8 ovarian
[29] = tested on: BT-549 breast
[30] = tested on: COLO 205 colon
[31] = tested on: HOP-62 NSCLC
[32] = tested on: EKVX NSCLC
[33] = tested on: MDA-N
[34] = tested on: NCI-H226 lung
[35] = tested on: SF-268 CNS
[36] = tested on: SR leukemia
[37] = tested on: SK-MEL-2 melanoma
[38] = tested on: PC-3 prostate
[39] = tested on: A549 NSCLC
[40] = tested on: HS 578T breast
[41] = tested on: OVCAR-4 ovarian
[42] = tested on: SK-OV-3 ovarian
[43] = tested on: ACHN renal
[44] = tested on: LOX IMVI melanoma
[45] = tested on: NCI-H522 lung
[46] = tested on: SW-620 colon
[47] = tested on: RPMI-8226 leukemia
[48] = tested on: SF-539 CNS
[49] = tested on: DU-145 prostate
[50] = tested on: MDA-MB-435
[51] = tested on: K-562 leukemia
[52] = tested on: MDA-MB-231 breast
[53] = tested on: HCT-116 colon
[54] = tested on: UACC-257 melanoma
[55] = tested on: HT29 colon
[56] = tested on: A498 renal
[57] = tested on: HOP-92 NSCLC
[58] = tested on: CAKI-1 renal
[59] = tested on: 786-0 renal

Measured: TGI

O=C(O)C1(Cc2ccccc2)Cc2ccccc2C1
not listed: [57] | [58] | [59]
> 100 µM: all other assays above

NCC(O)CSP(=O)(O)O (centres undefined)
not listed: [10] | [48]
> 100 µM: all other assays above

NC(=O)CNC(=O)C1CC(O)CN1C(=O)OCc1ccccc1 (centres undefined) (Cbz-[ξHyp]-Gly-NH2)
not listed: [48] | [57] | [58]
> 100 µM: all other assays above
